Experimental data as given in US9567649B2, “System for identification of microorganism and detection of infectious disease” (priority 2011, dated 2017).

B1: S(Topl): REEAD sensor previously demonstrated to react specifically with hTopl in human cell extract (SEQ ID NO: 25) (nucleic acid)
chain: AGAAAAATTTTTAAAAAAACTGTGAAGATCGCTTATTTTTTTAAAAATTTTTCTAAGTCTTTTAGATCCCTCAATGCTGCTGCTGTACTACGATCTAAAAGACTTAGA
modifications: chemistry not given here

Columns and labels:
Format in all cases: biochemical, Plasmodium falciparum
pfTopl [1] = test: REEAD: circularization of oligonucleotide sensors by purified pfTopl; conditions: control-circle added
Description: Like human topoisomerasel (hTopl), pfTopl belongs to the family of nuclear typelB topoisomerases, which introduce transient single-strand breaks in double-stranded DNA with preference for a very degenerate consensus sequence. Cleavage results in a covalent enzyme-DNA intermediate allowing religation of the generated nick (FIG. 23). […] Based on this, five different oligonucleotides with potential of being circularized specifically by pfTopl cleavage-ligation were designed. These oligonucleotides (PfTopl (S1-S5)) all folded into a hairpin structure containing a probe- and a primer-annealing sequence in the single-stranded loop and a potential pfTopl recognizable sequence at the end of the double-stranded stem region (FIG. 1 b). […] To allow comparative quantification of signals generated in different reactions, a known concentration of control-circle with a unique probe-annealing sequence was added to the reaction mixtures before RCA and resulting RCPs visualized using a green-fluorescent probe. […]
(§1) REEAD-microscopic readout: The 5′-amine-conjugated primer was coupled to CodeLink Activated Slides (SurModics) according to the manufacturer's description. […] Quantification of pfTopl specific signals was performed as previously described^1. REEAD-HRP readout: Primer coupling to NHS-activated M-PVA Akl 1 magnetic beads (Chemagen) was performed according to the manufacturer's description. […]

pfTopl [2] = test: REEAD in nuclear extract from HEK293T cells with or without spike-in pfTopl
Description: The specificity of pfTopl(S1) for pfTopl in crude biological samples was addressed using nuclear extract from human HEK293T cells with or without spike-in pfTopl as a model for Plasmodium infection. […] Consequently, green signals observed in FIG. 22b, right panel, originated from hTopl and pfTopl activity in combination where pfTopl(S1) and S(Topl) competed for reaction by pfTopl at the expense of sensitivity.
Cell culture and nuclear extract preparation: Human embryonic kidney HEK293T cells were cultured in Dulbecco's Modified Eagle Medium (GIBCO) supplemented with 10% fetal bovine serum (FBS) (GIBCO), 100 units/mL penicillin and […] streptomycin (Invitrogen). Cells were incubated in a humidified incubator (5% CO2/95% air atmosphere at 37° C.). Cells were harvested with 0.5% Trypsin-EDTA (GIBCO).
Media was discarded and the cell washed in Phosphate-Buffered Saline (1×PBS) prior to nuclear extraction performed as previously described′. […]
as §1

pfTopl [3] = test: DNA cleavage-ligation assay with radio-labeled duplex DNA in absence or presence of CPT; conditions: 60 nM CPT, duplex OL62/OL63, 20 min at 37° C.
Experimental: Detection of PfTopl activity using radio-labeled DNA substrates: DNA cleavage reactions were carried out by incubating 20 nM duplex OL37/OL56 or OL62/OL63 with 500 fmol of pfTopl or hTopl in the absence or presence of 60 nM CPT for 20 min at 37° C. in 10 mM Tris (pH 7.5), 5 mM MgCI2, and 5 mM CaCI2 in a final volume of 20 μI. After the 20 min incubation, reactions were stopped with 0.5% (w/v) SDS. Samples were subjected to ethanol precipitation, resuspended in 10 μI of 1 mg/ml trypsin and incubated at 37° C. for 30 min. Reaction products were analyzed by denaturing polyacrylamide gel electrophoresis following standard procedures, and radioactive bands were visualized by PhosphorImaging.

Molecule | circularization efficiency by pfTopl (red signals relative to green signals) (pfTopl [1]) | specificity of sensor for pfTopl in nuclear extract (pfTopl [2]) | effect of camptothecin on pfTopl ligation product (pfTopl [3])
pfTopl(S1): hairpin oligonucleotide sensor for pfTopl, sequence in the 2nd table (TCTAGAAAGTATAGGAACTTCGAACGACTCAGAATGACTG; hairpin, further chemistry not given here) | most efficient sensor of pfTopl | specificity of pfTopl(S1) for pfTopl even on a background of human nucleus content | –
CC[C@@]1(O)C(=O)OCc2c1cc1n(c2=O)Cc2cc3ccccc3nc2-1 [camptothecin] | – | – | A ligation product is only observed upon incubation of the substrate with pfTopl in the absence of camptothecin
B1 | circularizes S(Topl) | – | –
